This is an account of results in patent publication US8962660B2 (Bristol-Myers Squibb Company, priority 2013, dated 2015).

pEC50: −log10 of the molar value.

The target in this experiment is T1, human GPR120 (Homo sapiens, UniProt Q5NUL3).
T1 construct: expressed in transfected cells; host or cells: CHOA12 cells
T1 sequence (Q5NUL3 1-361): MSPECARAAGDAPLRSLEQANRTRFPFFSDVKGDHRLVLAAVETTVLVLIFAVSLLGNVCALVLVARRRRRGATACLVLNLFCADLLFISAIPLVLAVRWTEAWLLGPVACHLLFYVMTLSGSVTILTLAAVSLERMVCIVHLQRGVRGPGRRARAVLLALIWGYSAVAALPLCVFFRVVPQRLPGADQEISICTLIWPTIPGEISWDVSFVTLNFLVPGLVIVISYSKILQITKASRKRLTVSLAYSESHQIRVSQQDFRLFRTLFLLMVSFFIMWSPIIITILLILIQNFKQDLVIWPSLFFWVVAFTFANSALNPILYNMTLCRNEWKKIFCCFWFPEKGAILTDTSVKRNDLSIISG
Kind of experiment: GPR120 pERK AlphaScreen SureFire assay (human). It counts as cell-based. The following applies: CHO cells stably transfected with short form of human GPR120. The source says: GPR120 activity was monitored by measuring phosphorylation of ERK (pERK), since G protein receptors are known to activate the ERK signaling cascade either directly and/or through recruitment of arrestin that serves as a scaffold for downstream signaling events.
GPR120 pERK AlphaScreen SureFire Assay
The human and mouse GPR120-mediated intracellular phosphorylated ERK assays were established using CHOA12 cells stably transfected with the short form of human or mouse GPR120 receptor. Cells were cultured in growth medium consisting of F-12 media (Invitrogen Cat. #11765) with 5% Charcoal/Dextran FBS (Invitrogen Cat. #12676-029), 500 μg/mL GENETICIN® (Life Technologies Cat. #10131-027) and 250 μg/mL Zeocin (Invitrogen Cat. #R250-01). Cells were cryo preserved at a concentration of 2×10^7 cells/mL, in 90% Charcoal/Dextran FBS and 10% DMSO, and frozen in liquid nitrogen at a low passage number.
For the pERK assay, 2×10^7 cells/mL cryopreserved human and mouse cells were thawed rapidly in a 37° C. water bath and added to a T-225 flask containing 50 mL growth medium. The flasks were placed in a tissue culture incubator overnight (37° C., 5% CO2). The next day, cells were harvested with trypsin (Gibco Cat. #25300-054), resuspended in serum-containing growth medium and counted using a Cellometer and volume adjusted to a concentration of 0.6×10^6cells/mL. Cells were plated into 384-well clear bottom tissue culture plates (BD Cat. #353962) at 50 μL/well, for a density of 30,000 cells/well using a MULTIDROP® and incubated for 16-18 hours (overnight) at 37° C. with 5% CO2. The next day, cells were serum starved in 30 μL of F-12 media without any serum or antibiotics for 2 hours at 37° C.
Test compounds were 3-fold, 11-point serially diluted in DMSO in a REMP assay plate (Matrix Cat. #4307) by Tecan and 5 μL was transferred into an ECHO source plate (LABCYTE® Cat. #LC-0200). Cells were then stimulated with 50 nL of compound dilutions using ECHO liquid handler for 7 minutes at 37° C. Compounds ranged from final assay concentrations of 33.33 μM to 0.56 nM.
The media was then dumped and cells lysed with 20 μL of 1× Lysis buffer from the AlphaScreen SureFire Phospho-ERK 1/2 Kit (Perkin Elmer Cat. #6760617M). The lysis buffer was diluted 5-fold with water before use. The plate was agitated on a shaker for 10 minutes after which 2 μL was transferred into a 384-well white proxiplate (Perkin Elmer Cat. #6008289). The SureFire assay reagent mix was prepared by mixing 60 parts Reaction Buffer, 10 parts Activation Buffer, 1 part Donor Beads, 1 part Acceptor Beads (Perkin Elmer Cat. #TGRES10K). 3.5 μL/well of this reagent mix was manually added to the proxiplate with a multichannel pipettor. Plates were spun down at 1000 rpm for 2 minutes, followed by light-protected incubation at room temperature for 2 hours. The plates were read on the Alpha-technology compatible Envision multilabel plate reader using AlphaScreen protocol according to manufacturer's specifications. The agonist effect of compounds was expressed as 100×(average sample−average blank)/(average total−average blank) where sample is the luminescence activity in the presence of test compound, blank is equal to the luminescence activity in the presence of DMSO control and the total is signal induced by 50 μM linolenic acid as reference compound. Activation data for the test compound over a range of concentrations was plotted as percentage activation of the test compound (100%=maximum response). After correcting for background, EC50 values were determined The EC50 is defined as the concentration of test compound which produces 50% of the maximal response and was quantified using the 4 parameter logistic equation to fit the data.
The human and mouse GPR120-mediated intracellular phosphorylated ERK assays were also established using CHO-K1 cells stably transfected with the short form of human or mouse GPR120 receptor. […]
The compound `O=C(O)C1CC1CCC12CCC(c3cccc(Oc4ccccc4)c3)(CC1)OC2` (racemic) [Example 13, trans-2-(2-(1-(3-Phenoxyphenyl)-2-oxabicyclo[2.2.2]octan-4-yl)ethyl)cyclopropanecarboxylic acid] gave a pEC50 of 6.46.
With `O=C(O)[C@@H]1C[C@@H]1CCC12CCC(c3cccc(Oc4ccccc4)c3)(CC1)OC2` (racemic) [Example 32, Cis-2-(2-(1-(3-phenoxyphenyl)-2-oxabicyclo[2.2.2]octan-4-yl)ethyl)cyclopropanecarboxylic acid] the figure was 6.24; with `CCCC(C)Oc1cccc(C23CCC(CCOCC(=O)O)(CC2)CO3)c1` (racemic) [Example 53, 2-(2-(1-(3-(Pentan-2-yloxy)phenyl)-2-oxabicyclo[2.2.2]octan-4-yl)ethoxy)acetic acid], 5.99.
With `OCC(O)CCCC12CCC(c3cccc(Oc4ccccc4)c3)(CC1)OC2` (racemic) [Example 58, 5-(1-(3-Phenoxyphenyl)-2-oxabicyclo[2.2.2]octan-4-yl)pentane-1,2-diol] the figure was 6.54; with `O=C(O)[C@@H]1C[C@H]1CCC12CCC(c3cccc(Oc4ccccc4)c3)(CC1)OC2` (single isomer, unassigned) [Example 15], 6.32.
`O=C(O)C[C@H]1C[C@@H]1CC12CCC(c3cccc(Oc4ccccc4)c3)(CC1)OC2` (single isomer, unassigned) [Example 17] showed a negative-log EC50 (pEC50) of 6.59.
In the case of `O=C(O)C[C@@H]1C[C@H]1CC12CCC(c3cccc(Oc4ccccc4)c3)(CC1)OC2` (single isomer, unassigned) [Example 18] it was 6.39; in that of `OCC(O)CCCC12CCC(c3cccc(Oc4ccccc4)c3)(CC1)OC2` (single isomer, unassigned) [Example 59, S-5-(1-(3-Phenoxyphenyl)-2-oxabicyclo[2.2.2]octan-4-yl)pentane-1,2-diol], 6.44.
With `OC[C@H](O)CCCC12CCC(c3cccc(Oc4ccccc4)c3)(CC1)OC2` (single isomer, unassigned) [Example 60, R-5-(1-(3-phenoxyphenyl)-2-oxabicyclo[2.2.2]octan-4-yl)pentane-1,2-diol] the figure was 6.24; with `O=C(NCc1ncn[nH]1)[C@@H]1C[C@H]1CCC12CCC(c3cccc(Oc4ccccc4)c3)(CC1)OC2` (single isomer, unassigned) [Example 62, N-((1H-1,2,4-Triazol-5-yl)methyl)-2-(2-(1-(3-phenoxyphenyl)-2-oxabicyclo[2.2.2]octan-4-yl)ethyl) cyclopropanecarboxamide], 5.91; with `O=C(O)C1CC1CCC12CCC(c3cc(F)cc(Oc4ccccc4)c3)(CC1)OC2` (single isomer, unassigned) [Example 63, 2-(2-(1-(3-Fluoro-5-phenoxyphenyl)-2-oxabicyclo[2.2.2]octan-4-yl)ethyl)cyclopropanecarboxylic acid], 6.43.
With `O=C(O)[C@@H]1C[C@H]1CCC12CCC(c3cc(F)cc(Oc4cccc(F)c4)c3)(CC1)OC2` (single isomer, unassigned) [Example 64, 2-(2-(1-(3-Fluoro-5-(3-fluorophenoxy)phenyl)-2-oxabicyclo[2.2.2]octan-4-yl)ethyl) cyclopropanecarboxylic acid] the figure was 6.59.
On to `O=C(O)[C@@H]1C[C@H]1CCC12CCC(c3cccc(Oc4cccc(F)c4)c3)(CC1)OC2` (single isomer, unassigned) [Example 65, 2-(2-(1-(3-(3-Fluorophenoxy)phenyl)-2-oxabicyclo[2.2.2]octan-4 yl)ethyl)cyclopropane carboxylic acid], for which the pEC50 was 6.48.
`CC(C)COc1cccc(C23CCC(CC[C@@H]4C[C@H]4C(=O)O)(CC2)CO3)c1` (single isomer, unassigned) [Example 66, 2-(2-(1-(3-Isobutoxyphenyl)-2-oxabicyclo[2.2.2]octan-4-yl)ethyl)cyclopropanecarboxylic acid] had a negative-log EC50 (pEC50) of 5.68. Against the preceding compound, the pEC50 is 0.80 log units lower.
`COc1cccc(Oc2cccc(C34CCC(CC[C@@H]5C[C@H]5C(=O)O)(CC3)CO4)c2)c1` (single isomer, unassigned) [Example 67, 2-(2-(1-(3-(3-Methoxyphenoxy)phenyl)-2-oxabicyclo[2.2.2]octan-4-yl)ethyl)cyclopropanecarboxylic acid] gave a negative logarithm of the EC50 (pEC50) of 6.12.
In the case of `O=C(NCc1ncn[nH]1)[C@H]1C[C@@H]1CCC12CCC(c3cccc(Oc4ccccc4)c3)(CC1)OC2` (single isomer, unassigned) [Example 68, N-((1H-1,2,4-Triazol-5-yl)methyl)-2-(2-(1-(3-phenoxyphenyl)-2-oxabicyclo[2.2.2]octan-4-yl)ethyl)cyclopropanecarboxamide] it was 6.14; in that of `CCNC(=O)[C@@H]1C[C@H]1CCC12CCC(c3cccc(Oc4ccccc4)c3)(CC1)OC2` (single isomer, unassigned) [Example 69, N-Ethyl-2-(2-(1-(3-phenoxyphenyl)-2-oxabicyclo[2.2.2]octan-4-yl)ethyl) cyclopropanecarboxamide], 5.37; in that of `O=C(O)[C@@H]1C[C@H]1CCC12CCC(c3cccc(Oc4cccc(O)c4)c3)(CC1)OC2` (single isomer, unassigned) [Example 70, 2-(2-(1-(3-(3-Hydroxyphenoxy)phenyl)-2-oxabicyclo[2.2.2]octan-4-yl)ethyl) cyclopropanecarboxylic acid], 6.01.
Take `O=C(O)[C@@H]1C[C@H]1COCC12CCC(c3cccc(Oc4ccccc4)c3)(CC1)OC2` (single isomer, unassigned) [Example 98]: the pEC50 is 5.99.
In the case of `O=C(O)[C@H]1C[C@@H]1COCC12CCC(c3cccc(Oc4ccccc4)c3)(CC1)OC2` (single isomer, unassigned) [Example 99] it was 6.47.
In the case of `O=C(O)CCC12CCC(c3cccc(Oc4ccccc4)c3)(CC1)OC2` [Example 1, 3-(1-(3-Phenoxyphenyl)-2-oxabicyclo[2.2.2]octan-4-yl)propanoic acid] it was 5.64; in that of `O=C(O)CCCCC12CCC(c3cccc(Oc4ccccc4)c3)(CC1)OC2` [Example 2], 7.22.
In the case of `COc1cccc(C23CCC(CCCCC(=O)O)(CC2)CO3)c1` [Example 3, 5-(1-(3-Methoxyphenyl)-2-oxabicyclo[2.2.2]octan-4-yl)pentanoic acid] it was 6.70; in that of `Cc1nc(-c2ccccc2)c(C23CCC(CCCCC(=O)O)(CC2)CO3)s1` [Example 4, 5-(1-(2-Methyl-4-phenylthiazol-5-yl)-2-oxabicyclo[2.2.2]octan-4-yl)pentanoic acid], 5.80.
`O=C(O)CCOCC12CCC(c3cccc(Oc4ccccc4)c3)(CC1)OC2` [Example 5, 3-((1-(3-Phenoxyphenyl)-2-oxabicyclo[2.2.2]octan-4-yl)methoxy)propanoic acid] showed a pEC50 of 7.10.
With `CC(C)Oc1cccc(C23CCC(CCOCC(=O)O)(CC2)CO3)c1` [Example 7, 2-(2-(1-(3-Isopropoxyphenyl)-2-oxabicyclo[2.2.2]octan-4-yl)ethoxy)acetic acid] the figure was 5.12.
